These results are taken from patent publication US20090306218A1, “Antimicrobial formulations” (priority 2006, published 2009).

Broadly, the zone of inhibition is the extent of the growth-free halo in a diffusion test. Usually MIC stands for the smallest concentration in the dilution series that meets the test's criterion for growth inhibition. A low value points to inhibition by little substance. By MBC is commonly meant the smallest concentration meeting the test's criterion for killing.

Assay [1] deals with Propionibacterium acnes NCTC 737. The assay is described as follows: Disc diffusion assay (DDA). Format: cell-based. Conditions: for zone of inhibition at 200 µg/disc: Cutibacterium acnes, NCTC737, read-out: DDA (zone of inhibition diameter); for DDA (zone of inhibition diameter): P. acnes NCTC 737. Here is the method: (d) Disc Diffusion Assay (DDA)
This is an internationally recognised standard method for qualitatively assessing the antimicrobial activity of a compound.
A sterile paper disc was impregnated with a sample of the test compound in a suitable solvent and 30 minutes allowed for the solvents to evaporate (where possible). The disc was then placed on an agar plate onto which the test micro-organism had been inoculated. The plate was then incubated under the conditions described above, following which it was examined visually for signs of microbial growth. […] The diameter of this zone of “inhibition” was measured using a ProtoCOL™ automated zone sizer (Synbiosis, Cambridge, UK).
(§1) The TBHQ was dissolved in ethanol and the bismuth salts in DMSO.
(§2) All the (S)DDA experiments were conducted in triplicate.
(§3) DDA assays, as described above, were carried out using each of the test compounds individually. The quinone/bismuth salt combinations were then subjected to the SDDA assay described above.
(§4) The quinones and bismuth salts were all dissolved in DMSO.

Assay [2] has the same test system. The assay is described as follows: Minimum inhibitory concentration (MIC) assay, liquid medium. Format: cell-based. Conditions: P. acnes NCTC 737. As for the experimental part: (a) Minimum Inhibitory Concentration (MIC) Assay
This is a standard international method for quantitatively assessing the antimicrobial activity of a compound in a liquid medium. The method used a sterile 96-well microtitre plate, capable of holding about 200 μl of liquid per well. […] The culture medium was as described above.
After incubation, the microtitre plate was examined visually (with the aid of a light box) for cloudiness in each well, which would indicate microbial growth. The MIC value was recorded as the lowest concentration of test compound required to inhibit microbial growth, i.e., the lowest concentration for which the liquid in the well remained clear.
The assays were conducted in duplicate (minimum) and included both negative (culture medium with no micro-organisms) and positive (culture medium plus diluting solvent plus micro-organism) controls.
(§5) MIC, MBC and DDA assays, as described above, were carried out using the test compound t-butyl-p-hydroquinone (TBHQ) and a range of bismuth salts (all ex-Sigma Aldrich, UK).

For assay [3] the test system is unchanged. Put plainly: Synergy disc diffusion assay (SDDA). Format: cell-based. Conditions: P. acnes NCTC 737; for SDDA with TBHQ (zone diameter): bismuth salt together with TBHQ, 200 μg of each per disc; for SDDA increase: combination with TBHQ vs the single compound with the larger zone; for SDDA area increase: combination with TBHQ. As for the experimental part: (e) Synergy Disc Diffusion Assay (SDDA)
Each bismuth salt was then subjected, together with the TBHQ, to the SDDA assay described above.
as §1, §2, §3, §4
In general terms: Agar diffusion results depend on both activity and mobility in agar.

For assay [4] the test system is unchanged. Put plainly: Minimum bactericidal concentration (MBC) assay. Format: cell-based. Conditions: P. acnes NCTC 737. As for the experimental part: (b) Minimum Bactericidal Concentration (MBC) Assay
as §5

The test system of assay [5] is P. acnes PRP panel strains. Format: cell-based, Propionibacterium acnes.
Assay [6] concerns P. granulosum panel strains. Put plainly: Agar dilution MIC assay, panel of propionibacteria. In kind it is cell-based, Propionibacterium granulosum. On the technique in general: In agar dilution, organisms are placed on agar that contains the substance at set levels.
[7] abbreviates: 200 μg per disc (2-t-butyl-p-benzoquinone 100 μg per disc), in DMSO, Table 5.
Where [8] appears, read: P. acnes PRP-002, resistance phenotype Tet/MLS.
The mark [9] stands for this setting: P. acnes PRP-003, resistance phenotype Tet.
[10] abbreviates: P. acnes PRP-004, resistance phenotype Tet.
The mark [11] stands for this setting: P. acnes PRP-007, resistance phenotype Clin.
Where [12] appears, read: P. acnes PRP-008, resistance phenotype Clin.
Setting [13] is: P. acnes PRP-010, resistance phenotype MLSK.
The mark [14] stands for this setting: P. acnes PRP-017, resistance phenotype MLS.
Setting [15] is: P. acnes PRP-023, resistance phenotype MLSK.
Where [16] appears, read: P. acnes PRP-026, resistance phenotype MLS.
Where [17] appears, read: P. acnes PRP-039, resistance phenotype Tet/MLS.
[18] abbreviates: P. acnes PRP-046, resistance phenotype None.
[19] abbreviates: P. acnes PRP-053, resistance phenotype Tet/MLS.
Where [20] appears, read: P. acnes PRP-059, resistance phenotype MLS.
Where [21] appears, read: P. acnes PRP-068, resistance phenotype Ery.
[22] abbreviates: P. acnes PRP-101, resistance phenotype Tet/MLS.
Setting [23] is: P. acnes PRP-102, resistance phenotype Tet/MLS.
Setting [24] is: P. granulosum NCTC 11865, resistance phenotype None.
Setting [25] is: P. granulosum PRP-005, resistance phenotype MLSK.
The mark [26] stands for this setting: P. granulosum PRP-006, resistance phenotype MLS.
[27] abbreviates: P. granulosum PRP-019, resistance phenotype MLSK.
The mark [28] stands for this setting: P. granulosum PRP-021, resistance phenotype MLS.
The mark [29] stands for this setting: P. granulosum PRP-043, resistance phenotype MLS.
[30] abbreviates: P. granulosum PRP-044, resistance phenotype MLS.
Setting [31] is: P. granulosum PRP-055, resistance phenotype None.

Read-outs that look alike come from different tables or passages of the source.

Consider `O=C1C=CC(=O)C(Cl)=C1` [2-chloro-p-benzoquinone], for which the zone of inhibition at 200 µg/disc in assay [1] stood at 25.4 mm.

For `CC(C)(C)C1=CC(=O)C=CC1=O` [2-t-butyl-p-benzoquinone], the “DDA (zone of inhibition diameter)” value in assay [1] (setting [7]) was found to be 52.61 mm.

As to `CC(=O)[O-].CC(=O)[O-].CC(=O)[O-].[Bi+3]` [Bismuth acetate], in assay [2] (Table 1), the MIC turned out to be 0.98 µg/mL. Also, in assay [3] (Table 2), the “SDDA with TBHQ (zone diameter)” value came out at 34.89 mm, the SDDA increase is on record as 6.72 mm and the SDDA area increase was found to be 53.4%. Besides, in assay [4] (Table 1), the MBC came to 7.8 µg/mL and the MIC/MBC ratio amounted to 0.125. Besides, the “DDA (zone of inhibition diameter)” value in assay [1] (200 μg per disc, Table 2) turned out to be 28.17 mm.

Consider `[Cl][Bi]([Cl])[Cl]` [Bismuth chloride], for which the MIC in assay [2] (Table 1) was found to be 0.49 µg/mL. In assay [3] (Table 2), the “SDDA with TBHQ (zone diameter)” value came to 31.64 mm, the SDDA increase amounted to 5.57 mm and the SDDA area increase is reported as 47.29%. Besides, in assay [4] (Table 1), the MBC is 3.9 µg/mL and the MIC/MBC ratio turned out to be 0.125. Moreover, the “DDA (zone of inhibition diameter)” value in assay [1] (200 μg per disc, Table 2) came out at 26.07 mm.

Consider `O=C([O-])CC(O)(CC(=O)[O-])C(=O)[O-].[Bi+3]` [Bismuth citrate], for which the MIC in assay [2] (Table 1) turned out to be 0.98 µg/mL. For the same compound, the “MIC (agar dilution)” value in assay [5] (setting [8]) is 7.8 µg/mL; in assay [5] (setting [9]), 3.9 µg/mL; in assay [5] (setting [10]), 7.8 µg/mL; in assay [5] (setting [11]), 3.9 µg/mL; in assay [5] (setting [12]) it was 3.9 µg/mL; in assay [5] (setting [13]) it was 7.8 µg/mL. Besides, the “MIC (agar dilution)” value in assay [5] (setting [14]) was 3.9 µg/mL; in assay [5] (setting [15]), 3.9 µg/mL; in assay [5] (setting [16]) it was 3.9 µg/mL; in assay [5] (setting [17]), 0.98 µg/mL; in assay [5] (setting [18]) it was 3.9 µg/mL; in assay [5] (setting [19]), 3.9 µg/mL. In addition, the “MIC (agar dilution)” value in assay [5] (setting [20]), in assay [5] (setting [21]), in assay [5] (setting [22]), in assay [5] (setting [23]), in assay [6] (setting [24]) and in assay [6] (setting [25]) was 7.8 µg/mL in each case. Further, the “MIC (agar dilution)” value in assay [6] (setting [26]) was 7.8 µg/mL; in assay [6] (setting [27]), 7.8 µg/mL; in assay [6] (setting [28]), 7.8 µg/mL; in assay [6] (setting [29]), 3.9 µg/mL; in assay [6] (setting [30]) it was 7.8 µg/mL; in assay [6] (setting [31]), 7.8 µg/mL. The “SDDA with TBHQ (zone diameter)” value in assay [3] (Table 2) was determined as 43.41 mm. Also, the SDDA increase in assay [3] (Table 2) was found to be 8.94 mm. Moreover, the SDDA area increase in assay [3] (Table 2) is given as 58.59%. In assay [4] (Table 1), this compound came in with an MBC of 7.8 µg/mL. Besides, the MIC/MBC ratio in assay [4] (Table 1) came out at 0.125. Also, the “DDA (zone of inhibition diameter)” value in assay [1] (setting [7]) turned out to be 32.97 mm; in assay [1] (200 μg per disc, Table 2), 34.47 mm.

The compound `O=[N+]([O-])[O-].O=[N+]([O-])[O-].O=[N+]([O-])[O-].O=[N+]([O-])[O-].[Bi+3].[Bi+3].[Bi+3].[Bi+3].[Bi+3].[O-2].[OH-].[OH-].[OH-].[OH-].[OH-].[OH-].[OH-].[OH-].[OH-]` [Bismuth subnitrate] came in with an MIC in assay [2] (separate experiment, Table 3) of 3.9 µg/mL. Further, the “MIC (agar dilution)” value in assay [5] (setting [8]), in assay [5] (setting [9]), in assay [5] (setting [10]), in assay [5] (setting [11]), in assay [5] (setting [12]) and in assay [5] (setting [13]) was 7.8 µg/mL each time. Also, the “MIC (agar dilution)” value in assay [5] (setting [14]), in assay [5] (setting [15]), in assay [5] (setting [16]), in assay [5] (setting [17]), in assay [5] (setting [18]) and in assay [5] (setting [19]) was 7.8 µg/mL each time. Also, the “MIC (agar dilution)” value in assay [5] (setting [20]), in assay [5] (setting [21]), in assay [5] (setting [22]), in assay [5] (setting [23]), in assay [6] (setting [24]) and in assay [6] (setting [25]) was 7.8 µg/mL in each case. In addition, the “MIC (agar dilution)” value in assay [6] (setting [26]), in assay [6] (setting [27]), in assay [6] (setting [28]), in assay [6] (setting [29]), in assay [6] (setting [30]) and in assay [6] (setting [31]) was 7.8 µg/mL in each case. In assay [3] (Table 4), the “SDDA with TBHQ (zone diameter)” value is recorded as 30.39 mm. In assay [3] (Table 4), the SDDA increase came to 5.48 mm. Further, the SDDA area increase in assay [3] (Table 4) is 48.84%. This compound also gave an MBC in assay [4] (separate experiment, Table 3) of 7.8 µg/mL. In addition, the MIC/MBC ratio in assay [4] (separate experiment, Table 3) is 0.5. Also, the “DDA (zone of inhibition diameter)” value in assay [1] (setting [7]) is 24.91 mm; in assay [1] (200 μg per disc, separate experiment, Table 4), 24.91 mm.

In the case of `CC1=CC(=O)C=CC1=O` [Methyl-p-benzoquinone], the zone of inhibition at 200 µg/disc in assay [1] is 39.9 mm.
